Measured values taken from the supplement of paper PMC8612539.

Experiments:
[1] = tested on: Enterococcus spp.; assay: minimum inhibitory concentration (MIC)
Protocol: (§1)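 Broth microdilution MIC (Sensititre BOPO7F bovine plate, CLSI methods) of 19 antimicrobials against field isolates of P. multocida, M. haemolytica, H. somni (deep nasopharyngeal swabs) and E. coli, Enterococcus spp. (rectal swabs) from weaned dairy heifers. Incubation 16-24 h at 35 C. MIC is the lowest concentration preventing visible growth. Values with <= or > lie at the tested range limits. Trimethoprim-sulfamethoxazole is given as the trimethoprim component of a 1:19 mixture.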

[2] = tested on: Histophilus somni; assay: minimum inhibitory concentration (MIC)
Protocol: as §1

COc1cc(Cc2cnc(N)nc2N)cc(OC)c1OC.Cc1cc(NS(=O)(=O)c2ccc(N)cc2)no1 [trimethoprim-sulfamethoxazole]
minimum inhibitory concentration [µg/mL]
Details | [1] | [2]
isolate (source animal id): 2 | ≤ 2 | –
isolate (source animal id): 3 | – | ≤ 2
isolate (source animal id): 4 | – | > 2
isolate (source animal id): 7 | – | > 2
isolate (source animal id): 14 | – | > 2
isolate (source animal id): 15 | – | ≤ 2
isolate (source animal id): 17 | – | > 2
isolate (source animal id): 18 | – | ≤ 2
isolate (source animal id): 20 | – | > 2
isolate (source animal id): 23 | – | ≤ 2
isolate (source animal id): 35 | > 2 | –
isolate (source animal id): 42 | ≤ 2 | –
isolate (source animal id): 44 | > 2 | –
isolate (source animal id): 45 | – | > 2
isolate (source animal id): 53 | – | > 2
isolate (source animal id): 79 | ≤ 2 | –
isolate (source animal id): 83 | – | ≤ 2
isolate (source animal id): 88 | ≤ 2 | > 2
isolate (source animal id): 91 | ≤ 2 | –
isolate (source animal id): 92 | ≤ 2 | ≤ 2
isolate (source animal id): 93 | – | ≤ 2
isolate (source animal id): 99 | – | ≤ 2
isolate (source animal id): 100 | – | ≤ 2
isolate (source animal id): 105 | – | ≤ 2
isolate (source animal id): 107 | – | ≤ 2
isolate (source animal id): 108 | – | ≤ 2
isolate (source animal id): 109 | – | ≤ 2
isolate (source animal id): 110 | – | ≤ 2
isolate (source animal id): 111 | ≤ 2 | –
isolate (source animal id): 117 | – | > 2
isolate (source animal id): 121 | – | > 2
isolate (source animal id): 122 | > 2 | –
isolate (source animal id): 123 | ≤ 2 | ≤ 2
isolate (source animal id): 124 | – | ≤ 2
isolate (source animal id): 127 | – | ≤ 2
isolate (source animal id): 128 | – | > 2
isolate (source animal id): 130 | – | ≤ 2
isolate (source animal id): 132 | – | > 2
isolate (source animal id): 133 | ≤ 2 | –
isolate (source animal id): 135 | – | > 2
isolate (source animal id): 140 | – | > 2
isolate (source animal id): 141 | – | ≤ 2
isolate (source animal id): 142 | – | ≤ 2
isolate (source animal id): 144 | – | ≤ 2
isolate (source animal id): 146 | – | ≤ 2
isolate (source animal id): 147 | – | ≤ 2
isolate (source animal id): 151 | – | > 2
isolate (source animal id): 153 | – | ≤ 2
isolate (source animal id): 154 | – | ≤ 2
isolate (source animal id): 156 | – | ≤ 2
isolate (source animal id): 157 | – | ≤ 2
isolate (source animal id): 158 | > 2 | –
isolate (source animal id): 168 | ≤ 2 | –
isolate (source animal id): 169 | ≤ 2 | –
isolate (source animal id): 171 | ≤ 2 | –
isolate (source animal id): 175 | ≤ 2 | –
isolate (source animal id): 176 | – | ≤ 2
isolate (source animal id): 177 | ≤ 2 | –
isolate (source animal id): 181 | ≤ 2 | –
isolate (source animal id): 182 | ≤ 2 | –
isolate (source animal id): 183 | ≤ 2 | ≤ 2
isolate (source animal id): 186 | – | ≤ 2
isolate (source animal id): 187 | ≤ 2 | –
isolate (source animal id): 190 | ≤ 2 | –
isolate (source animal id): 194 | ≤ 2 | –
isolate (source animal id): 195 | ≤ 2 | –
isolate (source animal id): 196 | – | ≤ 2
isolate (source animal id): 197 | ≤ 2 | –
isolate (source animal id): 198 | – | ≤ 2
isolate (source animal id): 200 | – | ≤ 2
isolate (source animal id): 206 | – | ≤ 2
isolate (source animal id): 208 | – | ≤ 2
isolate (source animal id): 210 | – | ≤ 2
isolate (source animal id): 211 | ≤ 2 | –
isolate (source animal id): 212 | – | ≤ 2
isolate (source animal id): 214 | > 2 | –
isolate (source animal id): 215 | – | ≤ 2
isolate (source animal id): 216 | – | ≤ 2
isolate (source animal id): 218 | – | ≤ 2
isolate (source animal id): 219 | – | ≤ 2
isolate (source animal id): 222 | ≤ 2 | –
isolate (source animal id): 223 | ≤ 2 | –
isolate (source animal id): 224 | – | ≤ 2
isolate (source animal id): 228 | ≤ 2 | ≤ 2
isolate (source animal id): 230 | ≤ 2 | ≤ 2
isolate (source animal id): 233 | – | > 2
isolate (source animal id): 235 | ≤ 2 | –
isolate (source animal id): 236 | ≤ 2 | –
isolate (source animal id): 238 | – | > 2
isolate (source animal id): 239 | ≤ 2 | > 2
isolate (source animal id): 241 | ≤ 2 | ≤ 2
isolate (source animal id): 242 | – | ≤ 2
isolate (source animal id): 243 | – | ≤ 2
isolate (source animal id): 244 | ≤ 2 | –
isolate (source animal id): 245 | – | > 2
isolate (source animal id): 246 | ≤ 2 | ≤ 2
isolate (source animal id): 247 | ≤ 2 | ≤ 2
isolate (source animal id): 248 | – | ≤ 2
isolate (source animal id): 250 | ≤ 2 | ≤ 2
isolate (source animal id): 251 | – | ≤ 2
isolate (source animal id): 252 | > 2 | ≤ 2
isolate (source animal id): 254 | – | ≤ 2
isolate (source animal id): 258 | – | ≤ 2
isolate (source animal id): 259 | – | ≤ 2
isolate (source animal id): 262 | – | ≤ 2
isolate (source animal id): 264 | – | ≤ 2
isolate (source animal id): 265 | – | > 2
isolate (source animal id): 266 | – | ≤ 2
isolate (source animal id): 267 | – | ≤ 2
isolate (source animal id): 268 | ≤ 2 | –
isolate (source animal id): 269 | – | ≤ 2
isolate (source animal id): 271 | – | ≤ 2
isolate (source animal id): 272 | – | > 2
isolate (source animal id): 274 | – | ≤ 2
isolate (source animal id): 276 | – | ≤ 2
isolate (source animal id): 278 | – | ≤ 2
isolate (source animal id): 280 | – | > 2
isolate (source animal id): 281 | – | ≤ 2
isolate (source animal id): 282 | ≤ 2 | –
isolate (source animal id): 283 | – | ≤ 2
isolate (source animal id): 285 | > 2 | –
isolate (source animal id): 288 | – | ≤ 2
isolate (source animal id): 289 | ≤ 2 | –
isolate (source animal id): 290 | ≤ 2 | –
isolate (source animal id): 291 | – | > 2
isolate (source animal id): 292 | – | ≤ 2
isolate (source animal id): 296 | ≤ 2 | ≤ 2
isolate (source animal id): 298 | ≤ 2 | –
isolate (source animal id): 301 | ≤ 2 | –
isolate (source animal id): 306 | – | ≤ 2
isolate (source animal id): 310 | > 2 | –
isolate (source animal id): 320 | ≤ 2 | –
isolate (source animal id): 331 | ≤ 2 | –
isolate (source animal id): 333 | ≤ 2 | –
isolate (source animal id): 336 | – | ≤ 2
isolate (source animal id): 337 | – | ≤ 2
isolate (source animal id): 341 | > 2 | ≤ 2
